Results taken from patent publication US20210323976A1, “HETEROARYL COMPOUNDS FOR KINASE INHIBITION” (ARIAD Pharmaceuticals, Inc., priority 2015, published 2021).

Experiments:
Type in all cases: cell-based
[1] = target: T1, EGFR exon 20 ASV insertion (V769_D770insASV) (Homo sapiens, UniProt P00533, INS769ASV); experiment: Ba/F3-EGFR-Exon20-ASV cell anti-proliferation assay (MTS, CellTiter 96 AQueous One); conditions: Ba/F3-EGFR-Exon20-ASV cells, 72 h, MTS signal
T1 construct: expressed in transfected cells; host or cells: Ba/F3 (murine pro-B) cells, lentiviral transduction with pLVX-IRES puro
Text: A compound's ability in selectively inhibiting EGFR exon 20 insertion mutations can be assessed using Ba/F3 cells, a murine pro-B cell line, which have been transduced with EGFR exon 20 insertions. An expression vector, pLVX-IRES puro (Clontech) coding for human EGFR exon 20 insertions NPG (H773_V774insNPG) or ASV (V769_D770insASV), was transfected into HEK293 cells by the Trans-Lentiviral ORF Packaging System (Thermo Scientific), to produce virus encoding EGFR exon 20 insertions. Ba/F3 (DSMZ) cells maintained in RPM11640 medium supplemented with 10% fetal bovine serum, 200 pM L-glutamine/200 µg/mL penicillin/200 µg/mL streptomycin (Life Technology) and 10 ng/mL IL-3 (R&D system), were infected by EGFR Exon20 virus and subsequently selected by puromycin (Life Technology) selection and IL-3 depletion. Ba/F3 cells expressing EGFR exon 20 insertions (named Ba/F3-EGFR-Exon20-NPG or Ba/F3-EGFR-Exon20-ASV) can proliferate in the absence of IL-3. The anti-proliferative activity of compounds were determined as follows: BaF3-EGFR-Exon20 cells (NPG or ASV) seeded in 96 well plates (2500 cells/well) were treated with test compound (dissolved in DMSO) at a series of concentrations (4-fold dilution, top concentration: 10,000 nM). The plates were incubated for 72 h in a 37° C. incubator with 5% CO2, and the number of viable cells in each well were measured indirectly by CellTiter 96® Aqueous One Solution Cell Proliferation Assay (Promega) This assay is a colorimetric method for determining the number of viable cells through measurement of their metabolic activity by detection of enzymatic conversion of tetrazolium salts into blue formazan derivatives. Reagent (20 pL) was added into each well, and the plates were returned to the incubator for 2 h. The absorbance in each well was then measured at 490 nm using an Envision plate reader (Perkin Elmer). IC50 values were calculated by determining the concentration of compound required to decrease the MTS signal by 50% comparing to the DMSO control in best-fit curves using Microsoft XLfit software or Accelrys Pipeline Pilot.

[2] = target: T2, EGFR exon 21 L858R and T790M mutation (Homo sapiens, UniProt P00533, L858R/T790M); experiment: Ba/F3-EGFR L858R/T790M cell anti-proliferation assay (MTS); conditions: Ba/F3-EGFR L858R/T790M cells, 72 h, MTS signal
T2 construct: expressed in transfected cells; host or cells: Ba/F3 (murine pro-B) cells, lentiviral transduction with pLVX-IRES puro
Text: A compound's ability in selectively inhibiting EGFR L858R and T790M concurrent mutations can be assessed using Ba/F3 cells, a murine pro-B cell line, which have been transduced with EGFR L858R and T790M double mutations. An expression vector, pLVX-IRES puro (Clontech) coding for human EGFR L858R and T790M double mutation, was transfected into HEK293 cells by the Trans-Lentiviral ORF Packaging System (Thermo Scientific), to produce virus encoding EGFR L858R and T790M double mutations. Ba/F3 (DSMZ) cells maintained in RPM11640 medium supplemented with 10% fetal bovine serum, 200 pM L-glutamine/200 μg/mL penicillin/200 μg/mL streptomycin (Life Technology) and 10 ng/mL IL-3 (R&D system), were infected by EGFR L858R and T790M double mutation virus and subsequently selected by puromycin (Life Technology) selection and IL-3 depletion. Ba/F3 cells expressing EGFR L858R and T790M double mutation (named Ba/F3-EGFR L858R/T790M) can proliferate in the absence of IL-3. The anti-proliferative activity of compounds was determined as follows: BaF3-EGFR L858R/T790M cells seeded in 96 well plates (2500 cells/well) were treated with test compound (dissolved in DMSO) at a series of concentrations (4-fold dilution, top concentration: 10,000 nM). The plates were incubated for 72 h in a 37° C. incubator with 5% CO2, and the number of viable cells in each well were measured indirectly by CellTiter 96® Aqueous One Solution Cell Proliferation Assay (Promega; this assay is a colorimetric method for determining the number of viable cells through measurement of their metabolic activity by detection of enzymatic conversion of tetrazolium salts into blue formazan derivatives). Reagent (20 pL) was added into each well, and the plates were returned to the incubator for 2 h. The absorbance in each well was then measured at 490 nm using an Envision plate reader (Perkin Elmer). IC50 values were calculated by determining the concentration of compound required to decrease the MTS signal by 50% comparing to the DMSO control in best-fit curves using Microsoft XLfit software or Accelrys Pipeline Pilot.

[3] = target: T3, Her2 exon 20 YVMA insertion (A775_G776ins YVMA) (Homo sapiens, UniProt P04626, INS775YVMA); experiment: Ba/F3-Her2 Exon20 YVMA cell anti-proliferation assay (MTS); conditions: Ba/F3-Her2 Exon20 YVMA cells, 72 h, MTS signal
T3 construct: expressed in transfected cells; host or cells: Ba/F3 (murine pro-B) cells, lentiviral transduction with pLVX-IRES puro
Text: A compound's ability in selectively inhibiting Her2 exon 20 YVMA insertion mutations can be assessed using Ba/F3 cells, a murine pro-B cell line, which have been transduced with Her2 Exon20 YVMA insertions. An expression vector, pLVX-IRES puro (Clontech) coding for human EGFR exon 20 insertions YVMA (A775_G776ins YVMA), was transfected into HEK293 cells by the Trans-Lentiviral ORF Packaging System (Thermo Scientific), to produce virus encoding EGFR exon 20 insertions. Ba/F3 (DSMZ) cells maintained in RPM11640 medium supplemented with 10% fetal bovine serum, 200 pM L-glutamine/200 μg/mL penicillin/200 μg/mL streptomycin (Life Technology) and 10 ng/mL IL-3 (R&D system), were infected by EGFR Exon20 virus and subsequently selected by puromycin (Life Technology) selection and IL-3 depletion. Ba/F3 cells expressing Her2 Exon20 YVMA insertions (named Ba/F3-Her2 Exon20 YVMA) can proliferate in the absence of IL-3. The anti-proliferative activity of compounds was determined as follows: BaF3-Her2 Exon20 YVMA cells seeded in 96 well plates (2500 cells/well) were treated with test compound (dissolved in DMSO) at a series of concentrations (4-fold dilution, top concentration: 10,000 nM). The plates were incubated for 72 h in a 37° C. incubator with 5% CO2, and the number of viable cells in each well were measured indirectly by CellTiter 96® Aqueous One Solution Cell Proliferation Assay (Promega; this assay is a colorimetric method for determining the number of viable cells through measurement of their metabolic activity by detection of enzymatic conversion of tetrazolium salts into blue formazan derivatives). Reagent (20 pL) was added into each well, and the plates were returned to the incubator for 2 h. The absorbance in each well was then measured at 490 nm using an Envision plate reader (Perkin Elmer). IC50 values were calculated by determining the concentration of compound required to decrease the MTS signal by 50% comparing to the DMSO control in best-fit curves using Microsoft XLfit software or Accelrys Pipeline Pilot.

T3 sequence (P04626 with tags, fused parts or gaps INS775YVMA): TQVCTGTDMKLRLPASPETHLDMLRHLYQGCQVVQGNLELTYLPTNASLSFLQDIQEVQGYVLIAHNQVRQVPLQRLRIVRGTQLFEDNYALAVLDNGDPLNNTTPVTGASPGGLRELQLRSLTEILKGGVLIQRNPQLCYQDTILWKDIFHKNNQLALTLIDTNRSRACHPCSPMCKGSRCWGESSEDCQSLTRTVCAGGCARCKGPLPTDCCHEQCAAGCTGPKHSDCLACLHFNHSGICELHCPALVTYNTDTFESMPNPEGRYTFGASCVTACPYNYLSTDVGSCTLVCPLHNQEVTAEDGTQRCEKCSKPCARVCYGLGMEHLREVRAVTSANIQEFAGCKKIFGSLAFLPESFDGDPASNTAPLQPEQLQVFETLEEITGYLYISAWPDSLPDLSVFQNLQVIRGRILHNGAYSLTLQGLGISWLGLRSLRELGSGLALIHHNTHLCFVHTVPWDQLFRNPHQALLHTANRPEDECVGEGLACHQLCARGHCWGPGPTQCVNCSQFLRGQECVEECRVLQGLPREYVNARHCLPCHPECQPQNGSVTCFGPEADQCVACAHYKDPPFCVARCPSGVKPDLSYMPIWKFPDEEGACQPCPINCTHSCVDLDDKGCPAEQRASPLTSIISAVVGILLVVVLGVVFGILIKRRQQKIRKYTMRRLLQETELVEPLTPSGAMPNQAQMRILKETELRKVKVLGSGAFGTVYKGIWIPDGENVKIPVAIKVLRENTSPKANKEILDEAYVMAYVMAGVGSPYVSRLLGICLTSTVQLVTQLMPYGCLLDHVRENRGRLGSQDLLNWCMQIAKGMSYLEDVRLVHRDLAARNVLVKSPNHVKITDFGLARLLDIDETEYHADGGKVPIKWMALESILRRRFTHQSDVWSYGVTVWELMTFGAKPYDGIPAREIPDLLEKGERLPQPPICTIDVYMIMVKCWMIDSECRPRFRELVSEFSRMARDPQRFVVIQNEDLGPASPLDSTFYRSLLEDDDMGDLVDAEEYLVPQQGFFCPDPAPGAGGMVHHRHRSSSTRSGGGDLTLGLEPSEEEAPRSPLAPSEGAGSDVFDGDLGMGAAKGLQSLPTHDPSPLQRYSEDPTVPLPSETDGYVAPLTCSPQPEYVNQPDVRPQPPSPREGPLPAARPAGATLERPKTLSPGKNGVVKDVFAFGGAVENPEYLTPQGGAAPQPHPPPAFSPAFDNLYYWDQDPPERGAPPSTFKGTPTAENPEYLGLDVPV
T2 sequence (P00533 25-1210 T790M/L858R): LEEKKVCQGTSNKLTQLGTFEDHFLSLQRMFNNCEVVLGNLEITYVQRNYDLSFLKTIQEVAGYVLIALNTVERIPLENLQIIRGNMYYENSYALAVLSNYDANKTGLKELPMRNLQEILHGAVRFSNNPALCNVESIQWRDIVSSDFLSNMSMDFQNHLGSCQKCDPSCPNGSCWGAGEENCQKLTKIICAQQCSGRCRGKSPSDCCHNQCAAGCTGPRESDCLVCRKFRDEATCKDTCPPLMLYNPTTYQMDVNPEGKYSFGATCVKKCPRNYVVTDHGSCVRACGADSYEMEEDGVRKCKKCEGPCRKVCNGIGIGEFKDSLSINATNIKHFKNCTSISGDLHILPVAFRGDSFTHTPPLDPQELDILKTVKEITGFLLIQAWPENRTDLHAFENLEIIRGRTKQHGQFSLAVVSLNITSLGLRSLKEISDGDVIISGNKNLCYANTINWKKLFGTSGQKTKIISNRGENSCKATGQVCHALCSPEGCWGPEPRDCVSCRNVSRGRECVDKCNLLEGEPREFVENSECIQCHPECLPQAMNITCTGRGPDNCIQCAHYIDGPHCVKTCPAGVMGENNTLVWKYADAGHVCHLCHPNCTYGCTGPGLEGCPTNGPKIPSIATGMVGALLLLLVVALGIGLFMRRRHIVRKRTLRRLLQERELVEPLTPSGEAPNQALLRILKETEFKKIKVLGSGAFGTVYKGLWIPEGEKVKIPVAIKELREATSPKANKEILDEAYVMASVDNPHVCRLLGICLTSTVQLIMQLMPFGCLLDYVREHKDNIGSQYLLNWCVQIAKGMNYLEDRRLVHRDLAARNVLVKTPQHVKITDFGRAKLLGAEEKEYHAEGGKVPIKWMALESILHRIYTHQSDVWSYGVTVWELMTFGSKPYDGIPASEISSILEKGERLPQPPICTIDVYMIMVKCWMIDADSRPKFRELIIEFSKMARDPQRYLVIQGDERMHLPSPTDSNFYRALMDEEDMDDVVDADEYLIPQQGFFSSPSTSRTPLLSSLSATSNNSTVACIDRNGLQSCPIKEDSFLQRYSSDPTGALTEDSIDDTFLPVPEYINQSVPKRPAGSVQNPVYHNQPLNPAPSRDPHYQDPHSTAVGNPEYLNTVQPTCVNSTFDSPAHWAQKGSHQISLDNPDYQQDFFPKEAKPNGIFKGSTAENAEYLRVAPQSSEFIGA
T1 sequence (P00533 with tags, fused parts or gaps INS769ASV): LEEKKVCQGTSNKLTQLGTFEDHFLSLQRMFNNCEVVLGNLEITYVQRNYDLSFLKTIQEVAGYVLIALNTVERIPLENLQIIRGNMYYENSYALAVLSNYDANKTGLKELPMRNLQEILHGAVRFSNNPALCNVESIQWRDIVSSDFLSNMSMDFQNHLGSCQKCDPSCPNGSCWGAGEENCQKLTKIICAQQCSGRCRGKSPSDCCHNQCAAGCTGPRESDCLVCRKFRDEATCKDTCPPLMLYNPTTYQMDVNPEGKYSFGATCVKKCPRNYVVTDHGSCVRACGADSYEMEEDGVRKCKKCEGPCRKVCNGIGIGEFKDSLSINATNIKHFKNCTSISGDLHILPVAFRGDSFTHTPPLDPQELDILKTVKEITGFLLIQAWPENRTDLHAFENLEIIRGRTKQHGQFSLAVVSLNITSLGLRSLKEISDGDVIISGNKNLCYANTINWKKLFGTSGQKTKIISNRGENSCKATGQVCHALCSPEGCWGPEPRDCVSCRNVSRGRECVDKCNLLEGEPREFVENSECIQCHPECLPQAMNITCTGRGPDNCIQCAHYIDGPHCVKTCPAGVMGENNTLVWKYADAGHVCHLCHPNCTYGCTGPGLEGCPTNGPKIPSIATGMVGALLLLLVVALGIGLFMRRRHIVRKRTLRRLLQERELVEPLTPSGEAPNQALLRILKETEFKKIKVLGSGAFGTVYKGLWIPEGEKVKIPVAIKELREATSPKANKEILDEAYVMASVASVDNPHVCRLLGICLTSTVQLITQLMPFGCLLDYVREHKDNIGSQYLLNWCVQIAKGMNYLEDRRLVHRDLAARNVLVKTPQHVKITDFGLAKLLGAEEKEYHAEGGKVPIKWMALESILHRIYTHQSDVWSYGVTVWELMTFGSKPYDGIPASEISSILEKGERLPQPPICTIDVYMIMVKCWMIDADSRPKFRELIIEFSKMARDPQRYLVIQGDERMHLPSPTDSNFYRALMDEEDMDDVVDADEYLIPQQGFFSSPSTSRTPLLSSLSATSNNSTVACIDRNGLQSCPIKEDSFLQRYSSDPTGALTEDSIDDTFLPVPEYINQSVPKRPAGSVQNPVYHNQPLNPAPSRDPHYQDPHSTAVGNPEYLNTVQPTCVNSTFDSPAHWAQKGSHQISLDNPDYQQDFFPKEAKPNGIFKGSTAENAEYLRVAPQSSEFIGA

SMILES | IC50 [1] [µM] | IC50 [3] [µM] | EGFR exon 21 L858R and T790M mutation IC50 [2]
C=CC(=O)Nc1cc(Nc2nccc(-c3c4n(c5ccccc35)CCOC4)n2)c(OC)cc1N(C)CCN(C)C [Example 1, N-(5-((4-(3,4-dihydro-1H-[1,4]oxazino[4,3-a]indol-10-yl)pyrimidin-2-yl)amino)-2-((2-(dimethylamino)ethyl)(methyl)amino)-4-methoxyphenyl)acrylamide] | < 0.1 | 0.1 to 0.5 | A (Group A compounds have an IC50 value for the indicated mutant below about 100 nM)
C=CC(=O)Nc1cc(Nc2nccc(-c3c4n(c5ccccc35)CCN(C)C4=O)n2)c(OC)cc1N(C)CCN(C)C [Example 2, N-(2-((2-(dimethylamino)ethyl)(methyl)amino)-4-methoxy-5-((4-(2-methyl-1-oxo-1,2,3,4-tetrahydropyrazino[1,2-a]indol-10-yl)pyrimidin-2-yl)amino)phenyl)acrylamide] | 0.1 to 0.5 | > 1 | A (Group A compounds have an IC50 value for the indicated mutant below about 100 nM)
C=CC(=O)Nc1cc(Nc2nccc(-c3c4n(c5ccccc35)CC(O)CC4)n2)c(OC)cc1N(C)CCN(C)C (stereo not drawn) [Example 3, N-(2-((2-(dimethylamino)ethyl)(methyl)amino)-5-((4-(7-hydroxy-6,7,8,9-tetrahydropyrido[1,2-a]indol-10-yl)pyrimidin-2-yl)amino)-4-methoxyphenyl)acrylamide] | < 0.1 | 0.1 to 0.5 | A (Group A compounds have an IC50 value for the indicated mutant below about 100 nM)
C=CC(=O)Nc1cc(Nc2nccc(-c3c4n(c5ccccc35)CC3OC(C)(C)OC3C4)n2)c(OC)cc1N(C)CCN(C)C (stereo not drawn) [Example 4, N-(5-((4-(cis-2,2-dimethyl-3a,4,11,11a-tetrahydro-[1,3]dioxolo[4′,5′:4,5]pyrido[1,2-a]indol-10-yl)pyrimidin-2-yl)amino)-2-((2-(dimethylamino)ethyl)(methyl)amino)-4-methoxyphenyl)acrylamide] | < 0.1 | < 0.1 | A (Group A compounds have an IC50 value for the indicated mutant below about 100 nM)
C=CC(=O)Nc1cc(Nc2nccc(-c3c4n(c5ccccc35)CCCC4)n2)c(OC)cc1N(C)CCN(C)C [Example 5, N-(2-((2-(dimethylamino)ethyl)(methyl)amino)-4-methoxy-5-((4-(6,7,8,9-tetrahydropyrido[1,2-a]indol-10-yl)pyrimidin-2-yl)amino)phenyl)acrylamide] | < 0.1 | 0.1 to 0.5 | A (Group A compounds have an IC50 value for the indicated mutant below about 100 nM)

Continued, in another order:

IC50 [1] [µM] | IC50 [3] [µM] | SMILES | EGFR exon 21 L858R and T790M mutation IC50 [2]
< 0.1 | 0.1 to 0.5 | C=CC(=O)Nc1cc(Nc2nccc(-c3c4n(c5ccccc35)CC(O)C(O)C4)n2)c(OC)cc1N(C)CCN(C)C (stereo not drawn) [Example 6, N-(5-((4-(cis-7,8-dihydroxy-6,7,8,9-tetrahydropyrido[1,2-a]indol-10-yl)pyrimidin-2-yl)amino)-2-((2-(dimethylamino)ethyl)(methyl)amino)-4-methoxyphenyl)acrylamide] | A (Group A compounds have an IC50 value for the indicated mutant below about 100 nM)
< 0.1 | 0.1 to 0.5 | C=CC(=O)Nc1cc(Nc2nccc(-c3c4n(c5ccccc35)CC(OC)CC4)n2)c(OC)cc1N(C)CCN(C)C (stereo not drawn) [Example 7, N-(2-((2-(dimethylamino)ethyl)(methyl)amino)-4-methoxy-5-((4-(7-methoxy-6,7,8,9-tetrahydropyrido[1,2-a]indol-10-yl)pyrimidin-2-yl)amino)phenyl)acrylamide] | A (Group A compounds have an IC50 value for the indicated mutant below about 100 nM)
< 0.1 | < 0.1 | C=CC(=O)Nc1cc(Nc2nccc(-n3c4c(c5ccccc53)CC(O)CC4)n2)c(OC)cc1N(C)CCN(C)C (stereo not drawn) [Example 10, N-(2-((2-(dimethylamino)ethyl)(methyl)amino)-5-((4-(3-hydroxy-1,2,3,4-tetrahydro-9H-carbazol-9-yl)pyrimidin-2-yl)amino)-4-methoxyphenyl)acrylamide] | A (Group A compounds have an IC50 value for the indicated mutant below about 100 nM)
